Patent publication EP0703239A1, “Aminomethylphosphonic and aminomethylphosphinic acids derivatives and their use in the treatment of degenerative articular diseases” (priority 1994, dated 1996)
Like-named read-outs stand apart in the source and are kept apart here.

Assays:
[1] = test system: Rattenlebermikrosomen; experiment: Inhibition of microsomal lipid peroxidation (malondialdehyde/thiobarbituric acid); type: biochemical, Ratte; settings: rat liver microsomes, FeSO₄ start, 10 min 37°C; read-out: IC50 Mikrosomale Lipidperoxidation
Experimental: 4. Hemmung der Mikrosomalen Lipidperoxidation […]
Alle Schritte werden bei 0°C durchgeführt. Die Leber einer Ratte wird, um alles Hämoglobin zu entfernen, mit 0,9 % NaCl-Lösung gründlich gespült. Die grob zerkleinerte Leber wird dann in 10 mM Tris/HCl pH 7,4; 250 mM Saccharose (10 ml Puffer/g Leber) gepottert. Zunächst wird 5 Minuten bei 600xg zentrifugiert. Der Überstand wird dann 10 min bei 12000xg zentrifugiert und wird mit festem CaCl₂ (117,6 mg/100 ml) auf eine Konzentration von 8 mM eingestellt. Durch Zentrifugieren bei 25000 xg (15 min) wird ein Mikrosomenniederschlag gewonnen. Dieser Niederschlag wird im gleichen Volumen Puffer (10 mM Tris/HCl pH 7,4; 150 mM KCl) rehomogenisiert und erneut 15 min bei 25000 xg zentrifugiert.
Ein Testansatz besteht aus 20 µl Mikrosomen (100 mg/ml), vgl. oben, gelöst in Puffer (250 mM Tris/HCl pH 6,6, 750 mM KCl), 10 µl 50 mM MgCl₂, 10 µl 200 mM Isocitronensäure, 10 µl 4mM NADP (3,028 mg/ml Wasser), 10 µl 25 mM Niacinamid, 10 µl Isocitratdehydrogenase (1:100 verdünnt) und 20 µl Wasser oder Testsubstanz. Gestartet wird die Reaktion mit 10 µl 0,25 mM FeSO₄. Die Inkubation dauert 10 Minuten und erfolgt bei 37°C. Gestoppt wird mit 500 µl eiskalter 20 %iger Trichloressigsäure. Entstandenes Malondialdehyd wird durch Zugabe von 500 µl 0,67 %iger Thiobarbitursäure und 30 Minuten Inkubation bei 90°C in eine pinkfarbene Verbindung überführt, die bei 532 nm gemessen wird. Die Extinktion im Kontrollansatz ohne Prüfpräparat wird auf 0 % Hemmung gesetzt, während das völlige Verschwinden des Signals 100 % Hemmung bedeutet.

[2] = test system: IL-1alpha; experiment: LPS-stimulated interleukin release from human mononuclear cells, ELISA (IL-1alpha); type: cell-based; settings: 10 µmol/l, 20-22 h, read-out: % Hemmung der Interleukin-Freisetzung
Experimental: (§1) 5. Freisetzung von Interleukinen (insbesondere IL-1β) aus humanen mononuklearen Zellen
(§2) Die erfindungsgemäßen Verbindungen haben eine starke Hemmwirkung auf die Freisetzung von Interleukinen aus Humanzellen. Dies ist von großer pharmakologischer Bedeutung weil Interleukine die unerwünschte Degradation der Knorpelmatrix auslösen können.
(§3) 10 ml Humanblut, stabilisiert mit 1 ml 3,8 %iger Natriumcitrat-Lösung, werden mit 10 ml PM16 (Serva, Heidelberg) verdünnt und mit 15 ml Lymphoprep (Dr. Molter GmbH, Heidelberg) unterschichtet. Die Proben werden 40 Minuten bei 400 xg (1600 rpm Minifuge 2, Heraeus, Osterode) zentrifugiert (Raumtemperatur). Die mononuklearen Zellen sind als weißer Ring an der Grenze Lymphoprep/Plasma sichtbar. Dieser Ring wird mit einer Spritze vorsichtig entnommen, mit dem gleichen Volumen PM16 verdünnt und 10 Minuten bei 400 xg zentrifugiert. Der Niederschlag wird mit ∼ 10 ml RPMI 1640 (+ 300 mg/l L-Glutamin, Gibco, Eggenstein) gewaschen. Nach Resuspendieren der Zellen in ∼ 1 ml RPMI 1640 (+ 300 mg/l L-Glutamin, + 25 mM HEPES, + 100 µg/ml Streptomycin, + 100 µg/ml Penicillin) wird die Zelldichte mit einem Coulter Counter JT (Coulter Diagnostics) bestimmt und auf 5 * 10⁶/ml eingestellt. Die Zellen bestehen typischerweise aus 90 % Lymphozyten und 10 % Monozyten.
(§4) 230 µl mononukleare Zellen werden mit 10 µl Testsubstanz (10 µM in DMSO/Wasser 1/10) und 10 µl Lipopolysaccharide (500 µg gelöst in 1 ml Dimethylsulfoxid (DMSO) und vor Testbeginn 1/10 mit Wasser verdünnt, von Salmonella abortus equi, Sigma, Deisenhofen) 20-22 Stunden bei 37°C; 5 % CO₂ inkubiert. Die Proben werden in einem Eisbad auf 0°C abgekühlt und in einer Sigma-Zentrifuge zentrifugiert (2 Minuten; 2000 rpm). Aliquote des Überstandes werden mit einem kommerziell erhältlichen ELISA (Biermann, Bad Nauheim) bestimmt.

[3] = test system: Chondrozyten; experiment: Stimulation of cartilage matrix (proteoglycan) synthesis in chondrocyte agarose culture, 35S-sulfate incorporation; type: cell-based, Rinder; settings: Chondrocyte, read-out: Stimulationsfaktor der Proteoglykansynthese
Text: 1. Wirksamkeit in der Synthese-Stimulierung von Knorpel-Matrix, Prüfung in der Chondrozyten-Kultur
Zellen: Den Fußgelenken frisch geschlachteter Rinder werden der hyaline Knorpel entnommen, mit Pronase (Boehringer Mannheim) und Collagenase (Sigma), die native Matrix enzymatisch abgebaut, und die Chondrozyten in 1 %iger "low melting Agarose" in 24er Multiwell-Schalen in einer Zelldichte von 4 x 10⁶ pro well ausplattiert.
Medium: Komplettes Medium enthält HAM's F12 (Biochrom KG, Berlin) und 10 % foetales Kälberserum (Boehringer Mannheim), die Testsubstanz wird in Medium gelöst, üblicherweise in einer Konzentration von 10⁻⁵ M zugegeben und bei jedem Mediumwechsel erneut zugefügt.
Versuchsdurchführung: Die Behandlung erfolgt vom dritten bis zehnten Tag der Primärkultur, am 9. […] Die dissoziative Extraktion der Proteoglykane aus der Agarose-Schicht wird mit 8M Guanidinium-Hydrochlorid und beigefügten Proteinase-Inhibitoren (Sigma) unter Schütteln bei 4° C über 24 h durchgeführt. Der Überstand wird nach Zentrifugation über eine PD 10 ®Sephadex G 25 Säule in freies und inkorporiertes Sulfat getrennt, dessen Aktivität nach Aliquotierung im β-Szintillationscounter gemessen wird.
Auswertung: Der Parameter für die Matrixproduktion der Chondrozyten ist die Menge synthetisierter Proteoglykane, gemessen als Sulfatinkorporation in cpm. Aus vier Wells pro Gruppe wird der Mittelwert errechnet. Dieser wird durch den Mittelwert der unbehandelten Kontrolle dividiert, und ergibt somit einen Stimulationsfaktor, der bei Stimulation der Matrixsynthese größer 1 ist, bei Hemmung derselben durch Substanzwirkung kleiner 1, und bei unveränderter Matrixsynthese gleich 1 ist.
Als Standard wird Diacerein eingesetzt, das unter dem Markennamen "Artodar" von der Firma Proter bzw. […] Tabelle II

[4] = test system: Matrix Metalloproteasen (MMP); experiment: Inhibition of matrix metalloproteases from supernatant of PMA-induced synoviocytes, fluorogenic substrate; type: biochemical, Kaninchen
Text: 3. Inhibierung von Matrix Metalloproteasen (MMP)
Die erfindungsgemäßen Verbindungen zeigten deutliche inhibitorische Wirkungen auf proteolytische Enzyme, die sogenannten Matrix Metalloproteasen. Dies ist von großer Bedeutung, weil diese dem Fachmann an sich bekannten Enzyme am proteolytischen Abbau der intakten Knorpelmatrix entscheidend beteiligt sind.
Kaninchen Synoviocyten (HIG-82; ATCC, Rockville, Maryland, USA) werden in Nährmedium HAM'S F12 (Sigma, Deisenhofen, Deutschland, Katalog Nr. N-6760) mit 10 % fötalem Rinder Serum (Sigma, Deisenhofen, Deutschland, Katalog Nr. F-2442), zusammen mit Penicillin 100 U/ml sowie Streptomycin 100 µg/ml, kultiviert. Nach konfluentem Zellwachstum wird die MMP Expression in serumfreiem HAM'S F12 durch Zugabe von 0,3 µmol/l Phorbol-12-Myristat-13-Acetat induziert. Nach 20 h Inkubationszeit bei 37°C wird der Überstand abgenommen.
Der Überstand wird mit Trypsin (5 µg/ml) aktiviert. Nach 15 Minuten (min) bei 37°C wird die Aktivierung durch Zugabe von 1 mmol/l Phenylmethylsulfonylfluorid (PMSF) beendet und für weitere 10 min nachinkubiert. Das Gesamtvolumen des Ansatzes beträgt 210 µl.
Messung der MMP Aktivität (Lit.: C.G. Knight et al.; FEBS Lett. 296, 263 (1992)):
20 µl des obengenannten Überstandes werden 1:10 verdünnt, und mit 240 µl Puffer (0,1 Tris/HCl pH 7,5; 0,1 M NaCl; 0,01 M CaCl₂; 0,05 % Brij) gemischt. Die Prüfsubstanz wird in der angegebenen Konzentration (s. Tabelle) zugegeben. Nach einer Inkubationszeit von 15 min wird die Reaktion durch Zugabe von 20 µmol/l Fluoreszenz-Substanz ((7-Methoxycoumarin-4-yl)acetyl-pro-Leu-Gly-Leu-[3-(2',4'-dinitrophenyl)-L-2,3-diaminopropionyl]-Ala-Arg-NH₂; Bachem, Heidelberg, Deutschland, Kat. Nr.: M-1895) gestartet. Die Reaktion wird nach 30 min durch Zugabe von 10 mmol/l EDTA beendet. Das Gesamtvolumen des Ansatzes beträgt 320 µl. Als Meßparameter dienen die Fluoreszenzintensitäten bei λex: 328 nm und […]. Um die mögliche Eigenfluoreszens der Prüfsubstanzen zu berücksichtigen, werden die Fluoreszenzintensitäten von Parallel-Messungen ohne Substrat von den Messwerten mit Substrat abgezogen. Alle Operationen erfolgen bei 20°C. Im Kontrollexperiment ohne Hemmstoff wird die Fluoreszenz entsprechen 0 % Hemmung gesetzt, während völlige Auslöschung der Fluoreszenz 100 % Hemmung bedeutet.

[5] = test system: TNF-alpha; experiment: LPS-stimulated interleukin release from human mononuclear cells, ELISA (TNF-alpha); type: cell-based; settings: 10 µmol/l, 20-22 h, read-out: % Hemmung der Interleukin-Freisetzung
Experimental: as §1, §2, §3, §4

[6] = test system: IL-1beta; experiment: LPS-stimulated interleukin release from human mononuclear cells, ELISA (IL-1beta); type: cell-based; settings: 10 µmol/l, 20-22 h, read-out: % Hemmung der Interleukin-Freisetzung
Experimental: as §1, §2, §3, §4

[7] = test system: Chondrozyten; experiment: IL-1-induced chondrocytic chondrolysis in chondrocyte agarose culture, 35S-sulfate incorporation; settings: agarose cell culture with 5 u/ml human rec. IL-1 alpha; factor relative to IL-1 treated control

| SMILES | IC50 [1] [nM] | inhibition at 10 µM [2] [%] | fold induction at 10 µM [3] | Hemmung der MMP ([4]; 30 µM) [%] | Hemmung der MMP ([4]; 100 µM) [%] | inhibition at 10 µM [5] [%] | inhibition at 10 µM [6] [%] | Stimulationsfaktor der Proteoglykansynthese [7] | fold induction at 10 µM ([3]; agarose cell culture, test substance usually 10⁻⁵ M, mean sulfate incorporation divided by untreated control (>1 = stimulation)) | Hemmung der MMP ([4]; 10 µM) [%] |
| --- | --- | --- | --- | --- | --- | --- | --- | --- | --- | --- |
| COP(=O)(OC)C(NC1CCCCC1)c1cc(C(C)(C)C)c(O)c(C(C)(C)C)c1 (stereo not shown) [Beispiel 7] | 2400 | 21 |  |  |  |  |  |  |  |  |
| CCOP(=O)(OCC)C(c1cc(C(C)(C)C)c(O)c(C(C)(C)C)c1)N1CCCCC1 (stereo not shown) [Beispiel 22] | 2450 | 80 | 1.2 | 12 | 34 | 86 |  |  |  |  |
| CCOP(=O)(OCC)C(c1cc(C(C)(C)C)c(O)c(C(C)(C)C)c1)N1CCOCC1 (stereo not shown) [Beispiel 23] | 2450 | 75 |  |  |  | 70 |  |  |  |  |
| CCOP(=O)(OCC)C(c1cc(C(C)(C)C)c(O)c(C(C)(C)C)c1)N1CCN(c2ccccc2)CC1 (stereo not shown) [Beispiel 25] | 2450 | 60 |  |  |  | 36 |  |  |  |  |
| CCCCOP(=O)(OCCCC)C(NCc1ccc2c(c1)OCO2)c1cc(C(C)(C)C)c(O)c(C(C)(C)C)c1 (stereo not shown) [Beispiel 31] | 2180 |  |  |  |  |  | 32 | 1,7 |  |  |
| CCCCOP(=O)(OCCCC)C(Nc1ccc(Cl)cc1)c1cc(C(C)(C)C)c(O)c(C(C)(C)C)c1 (stereo not shown) [Beispiel 45] | 6150 | 22 |  |  |  |  |  | 1,2 |  |  |
| CCOP(=O)(OCC)C(c1cc(C(C)(C)C)c(O)c(C(C)(C)C)c1)N(C)c1ccccc1 (stereo not shown) [Beispiel 53] | 2030 |  |  | 11 | 25 |  | 53 | 1,7 |  |  |
| COP(=O)(OC)C(Nc1ccc2c(c1)OCO2)c1cc(C(C)(C)C)c(O)c(C(C)(C)C)c1 (stereo not shown) [Beispiel 60] | 710 |  |  |  |  | 24 |  | 1,4 |  |  |
| CCOP(=O)(OCC)C(Nc1ccc2c(c1)OCO2)c1cc(C(C)(C)C)c(O)c(C(C)(C)C)c1 (stereo not shown) [Beispiel 61] |  |  | 2.9 |  |  |  | 24 | 1,3 |  |  |
| CCCOP(=O)(OCCC)C(Nc1ccc2c(c1)OCO2)c1cc(C(C)(C)C)c(O)c(C(C)(C)C)c1 (stereo not shown) [Beispiel 62] | 240 |  |  | 68 | 83 |  | 46 | 1,2 | 1.2 | 23 |
| CCCCOP(=O)(OCCCC)C(Nc1ccc2c(c1)OCO2)c1cc(C(C)(C)C)c(O)c(C(C)(C)C)c1 (stereo not shown) [Beispiel 63] | 240 |  |  | 60 |  |  | 31 | 1,5 |  | 26 |
| CCOP(=O)(OCC)C(Nc1ccc(C=CC(=O)OC)cc1)c1cc(C(C)(C)C)c(O)c(C(C)(C)C)c1 (stereo not shown) [Beispiel 67] | 2220 |  |  |  |  |  | 26 | 1,9 |  |  |
| CCOP(=O)(OCC)C(Nc1ncccn1)c1cc(C(C)(C)C)c(O)c(C(C)(C)C)c1 (stereo not shown) [Beispiel 80] | 2900 |  |  |  |  | 21 |  | 2,4 |  |  |
